One data set addresses T1, rat UT-A1 (Rattus norvegicus, UniProt Q62668).
T1 construct: expressed in transfected cells; host or cells: MDCK cells stably co-expressing rat UT-A1, human AQP1 and YFP-H148Q/V163S
T1 sequence (Q62668 1-929): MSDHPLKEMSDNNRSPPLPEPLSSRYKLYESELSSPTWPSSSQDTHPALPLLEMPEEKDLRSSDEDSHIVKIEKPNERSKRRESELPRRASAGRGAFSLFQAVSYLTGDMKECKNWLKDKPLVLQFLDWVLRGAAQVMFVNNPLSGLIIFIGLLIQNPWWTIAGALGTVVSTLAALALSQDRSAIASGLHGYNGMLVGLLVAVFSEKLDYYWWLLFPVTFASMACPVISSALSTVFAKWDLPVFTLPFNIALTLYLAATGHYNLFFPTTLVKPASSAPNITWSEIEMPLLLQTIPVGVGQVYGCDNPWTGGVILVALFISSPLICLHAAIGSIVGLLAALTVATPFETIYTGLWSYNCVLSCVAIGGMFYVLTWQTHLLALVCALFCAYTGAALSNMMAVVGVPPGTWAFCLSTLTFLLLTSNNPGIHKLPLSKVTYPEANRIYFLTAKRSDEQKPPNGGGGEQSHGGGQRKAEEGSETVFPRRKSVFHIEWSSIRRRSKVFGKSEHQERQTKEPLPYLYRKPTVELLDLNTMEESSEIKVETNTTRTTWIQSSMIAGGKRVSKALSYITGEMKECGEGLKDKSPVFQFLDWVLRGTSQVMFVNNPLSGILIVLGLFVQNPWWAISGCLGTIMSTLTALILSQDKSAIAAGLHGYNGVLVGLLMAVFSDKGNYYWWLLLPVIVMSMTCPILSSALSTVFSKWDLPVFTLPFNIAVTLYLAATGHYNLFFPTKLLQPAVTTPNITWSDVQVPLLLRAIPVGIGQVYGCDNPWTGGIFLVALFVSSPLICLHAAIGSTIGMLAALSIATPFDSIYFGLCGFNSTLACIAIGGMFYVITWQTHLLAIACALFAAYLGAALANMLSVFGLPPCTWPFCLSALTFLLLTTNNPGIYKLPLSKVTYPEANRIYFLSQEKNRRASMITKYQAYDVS
Put plainly: UT-A1 inhibition, fluorescence plate reader assay in MDCK cells expressing UT-A1, AQP1 and YFP-H148Q/V163S. The class given is cell-based. How it is done:
Primary screening was done using a collection of 50,000 chemically diverse, drug-like compounds from ChemDiv (San Diego, Calif.). For analysis of structure-activity relationships, >300 commercially available analogs (ChemDiv and Asinex, Winston-Salem, N.C.) were tested. Cells were plated on black 96-well Costar microplates with clear plastic bottoms (Corning, Corning, N.Y.) at 15,000 cells/well and cultured for 24 h at 37° C. before assay. Microplates containing cultured cells were washed twice with PBS and 150 μL of test compound (25 μM final) in PBS was added. Eighty wells contained test compounds, and the first and last columns of each plate contained negative (dimethyl sulfoxide, DMSO) and positive (0.35 mM phloretin) controls. The assays were done on a plate reader (Tecan Trading AG, Switzerland) equipped with a custom YFP filter set. Each assay consisted of a continuous 15-s read (5 Hz) in which 50 μL of 3.2 M urea in PBS was injected at 1 s (at 130 μL/s) to give a 800 mM final urea gradient.
MDCK cells stably expressing rat UT-A1 (see, e.g., Frohlich et al. (2006) Am J Physiol Cell Physiol. 291, C600-D606), YFP-H148Q/V163 S (see, e.g., Galietta, et al. (2001) FEBS Lett. 499, 220-224) and human AQP1, as described previously (see, e.g., Esteva-Font et al. (2013) Chem Biol. 20, 1235-1244), were grown in Dulbecco's modified Eagle medium (DMEM) containing 10% fetal bovine serum (FBS), penicillin G (100 U/mL), streptomycin (100 μg/mL), zeocin (500 μg/mL), geneticin (600 μg/mL) and Hygromycin (500 μg/mL) at 37° C., 5% CO2. A Cell Clone with bright YFP fluorescence and relatively low AQP1 expression was used for the screen to maximize dynamic range.
In order to identify UT-A inhibitors suitable for testing in rats, a collection of 50,000 synthetic small molecules was screened. As diagrammed in FIG. 1A (top), the fluorescence cell-based screen utilized MDCK cells stably rat expressing UT-A1, water channel AQP1 and the cytoplasmic chloride-sensing fluorescent protein YFP-H148Q/V163S. As described and validated previously (see, e.g., Esteva-Font et al. (2013) Chem Biol. 20, 1235-1244), extracellular addition of urea results in osmotic water efflux and cell shrinking, which increases intracellular chloride concentration and reduces YFP fluorescence. Urea entry results in increasing YFP fluorescence as cells re-swell. Inhibitors of UT-A1 urea transport produce a lesser reduction in fluorescence and slowed recovery.

Another data set can be described thus: Pharmacokinetics in rats. The format is in vivo. The following applies: rat; for half-life: plasma, read-out: plasma elimination t1/2 (converted). The protocol:
UTAinh-E02 or UTAinh-F11 was administered at 20 mg/kg intravenously by tail vein to rats. UTAinh-E02 was formulated as a 5 mg/mL saline solution containing 20% dimethylacetamide and 40% 2-hydroxypropyl γ-cyclodextrin; UTAinh-F11 was formulated as a 5 mg/mL saline solution containing 20% dimethylacetamide and 0.6 mg/mL NaOH. Blood samples were collected from the tail vein into K3EDTA mini collecting tubes (Greiner, Kremsmunster, Austria) at specified time points. Plasma samples were separated by centrifugation and kept frozen at −20 OC until analysis. Urine samples were also collected. Calibration standards were prepared in urine and plasma from control (non-treated) rats to which known amounts of UTAinh-E02 or UTAinh-F11 were added. The mixture was centrifuged for 20 min at 13,200 rpm and 90 μL of supernatant was taken for LC/MS. The solvent system consisted of a linear gradient from 5% to 95% acetonitrile containing 0.1% formic acid over 16 min (0.2 mL/min flow). Mass spectra was acquired on a mass spectrometer (Waters 2695+micromass ZQ; Waters) using electrospray (+) ionization, mass ranging from 100 to 1500 Da, 40-V cone voltage.
Several vehicles and administration routes were tested in order to give predicted therapeutic inhibitor concentrations in blood and urine. […] Because of the alkaline pH of the administered compounds the vehicle control for UTAinh-F11 was 20% dimethylacetamide and 1.2 mg/mL NaHCO3 in saline to give identical pH. […] Urine levels of UTAinh-F11 were >3 μM over 6 h.

[1] abbreviates: intraperitoneal, subcutaneous or oral, up to 100 mg/kg.

Several values for one entry are separate records, joined by “and”; a condition that tells them apart may be missing. Equal values may be shown once.

Compound `COc1ccc(C)cc1S(=O)(=O)Nc1ccc(Cl)c(N2CCCS2(=O)=O)c1` [UTA1inh-F11, N-[4-Chloro-3-(1,1-dioxido-1,2-thiazolidin-2-yl)phenyl]-2-methoxy-5-methylbenzene-sulfonamide] came in with a half-maximal inhibitory concentration (IC50) against rat UT-A1 of 1 µM. For the same compound, in the data set “Pharmacokinetics in rats” (intravenous 20 mg/kg), the half-life is around 1 h, the plasma level initially result is “higher initial plasma levels than UTAinh-E02” and the “urine levels over 6 h” value is above 3 µM.

As to `CC(=O)Nc1ccc(-c2csc(-c3c[nH]c4ccccc34)n2)cc1` [UTA1inh-E02, N-(4-(2-(1H-indol-3-yl)thiazol-4-yl)phenyl)acetamide], on rat UT-A1, the IC50 is ~1 µM and 1 µM. Further, in the data set “Pharmacokinetics in rats” (intravenous 20 mg/kg), the half-life was around 4.5 h, the plasma level initially was around 6 µM and the urine level initially is around 3 µM. In “Pharmacokinetics in rats” (setting [1]), this compound gave a plasma concentration below 1 µM and a urine concentration below 1 µM.

Values taken from US11123340B2, “Small-molecule UT-A-selective urea transport inhibitors” (The Regents of the University of California, priority 2014, dated 2021).
